Results taken from patent publication US20230072854A1, “PARAXANTHINE-BASED BIOACTIVE COMPOSITION AND METHOD OF USE THEREOF” (Ingenious Ingredients, LP, priority 2020, published 2023).

Assay: Toxicity, LD50
Settings: in vivo

Cn1cnc2c1c(=O)[nH]c(=O)n2C [theobromine, reference compound]
LD50: 1260 mg/kg
